From PubChem BioAssay AID330 (DTP/NCI, 2004)
“And” between values parts separate entries of the source, which are not always exact repeats. Identical values can stand only once. Inconclusive results and toxic doses are left out. How the source made its calls: active means survival T/C of 150% or more; inactive means T/C below 125% in these data.

System: P388 leukemia ip, CD2F1 mice, survival T/C
Test: NCI In Vivo Anticancer Drug Screen. Data for tumor model P388 Leukemia (intraperitoneal) in CD2F1 (CDF1) mice
Conditions: endpoint: median survival time, higher = longer survival
In short: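 Mice carrying the transplanted tumor received test compound or vehicle. Survival was recorded in each group, and the value is the treated-group measurement divided by that of the vehicle-treated control group.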

[1] = dose: 50.0 mg/kg/injection, schedule: Q01DX009 (ip), vehicle: Klucel (hydroxypropylcellulose) (HPC)
[2] = dose: 100.0 mg/kg/injection, schedule: Q01DX009 (ip), vehicle: Klucel (hydroxypropylcellulose) (HPC)
[3] = dose: 200.0 mg/kg/injection, schedule: Q01DX009 (ip), vehicle: Klucel (hydroxypropylcellulose) (HPC)
[4] = dose: 100.0 mg/kg/injection, schedule: Q01DX009 (ip), vehicle: saline
[5] = dose: 200.0 mg/kg/injection, schedule: Q01DX009 (ip), vehicle: saline
[6] = dose: 50.0 mg/kg/injection, schedule: Q01DX009 (ip), vehicle: saline with Tween-80
[7] = dose: 100.0 mg/kg/injection, schedule: Q01DX009 (ip), vehicle: saline with Tween-80
[8] = dose: 200.0 mg/kg/injection, schedule: Q01DX009 (ip), vehicle: saline with Tween-80
[9] = dose: 50.0 mg/kg/injection, schedule: Q01DX005 (ip), vehicle: saline with Tween-80
[10] = dose: 100.0 mg/kg/injection, schedule: Q01DX005 (ip), vehicle: saline with Tween-80
[11] = dose: 200.0 mg/kg/injection, schedule: Q01DX005 (ip), vehicle: saline with Tween-80
[12] = dose: 50.0 mg/kg/injection, schedule: Q01DX005 (ip), vehicle: Klucel (hydroxypropylcellulose) (HPC)
[13] = dose: 100.0 mg/kg/injection, schedule: Q01DX005 (ip), vehicle: Klucel (hydroxypropylcellulose) (HPC)
[14] = dose: 200.0 mg/kg/injection, schedule: Q01DX005 (ip), vehicle: Klucel (hydroxypropylcellulose) (HPC)
[15] = dose: 12.5 mg/kg/injection, schedule: Q01DX009 (ip), vehicle: saline with Tween-80
[16] = dose: 25.0 mg/kg/injection, schedule: Q01DX009 (ip), vehicle: saline with Tween-80
[17] = dose: 50.0 mg/kg/injection, schedule: Q01DX009 (ip), vehicle: saline
[18] = dose: 12.5 mg/kg/injection, schedule: Q01DX005 (ip), vehicle: Klucel (hydroxypropylcellulose) (HPC)
[19] = dose: 12.5 mg/kg/injection, schedule: Q01DX009 (ip), vehicle: water
[20] = dose: 25.0 mg/kg/injection, schedule: Q01DX005 (ip), vehicle: Klucel (hydroxypropylcellulose) (HPC)
[21] = dose: 6.25 mg/kg/injection, schedule: Q01DX009 (ip), vehicle: saline with Tween-80

Measured: T/C

CN(C)CCC(=O)C(=Cc1ccc(Cl)c(Cl)c1)C(=O)CCN(C)C
inactive: dose: 50.0 mg/kg/injection, schedule: Q01DX005 (ip), vehicle: saline 104 % of control | dose: 100.0 mg/kg/injection, schedule: Q01DX005 (ip), vehicle: saline 109 % of control

N#CC1C(=O)NC(=S)NC1CCc1ccccc1 (stereo not drawn)
inactive: [1] 105 % of control | [2] 99 % of control | [3] 100 % of control

N=C(N)Sc1ccccn1
inactive: [4] 94 % of control | [5] 101 % of control

CCCCCCCCCCCCCCCCCS(=O)S(=O)O (stereo not drawn)
inactive: [6] 113 % of control | [7] 118 % of control | dose: 100.0 mg/kg/injection, schedule: Q04DX003 (ip), vehicle: Klucel (hydroxypropylcellulose) (HPC) 100 % of control | [8] 122 % of control | dose: 200.0 mg/kg/injection, schedule: Q04DX003 (ip), vehicle: Klucel (hydroxypropylcellulose) (HPC) 109 % of control | dose: 400.0 mg/kg/injection, schedule: Q04DX003 (ip), vehicle: Klucel (hydroxypropylcellulose) (HPC) 113 % of control

CC(NNC(=S)N1CCCC1)c1cc2ccccc2cn1 (stereo not drawn)
inactive: dose: 25.0 mg/kg/injection, schedule: Q01DX005 (ip), vehicle: saline with Tween-80 104 % of control and 108 % of control | [9] 110 % of control and 123 % of control | [10] 104 % of control

N#CCCN(CCC#N)Cc1c(O)ccc2ccccc12
inactive: [9] 104 % of control | [10] 114 % of control | [11] 117 % of control

COc1cc([N+](=O)[O-])c(OC)cc1C(C)=O
inactive: [12] 96 % of control | [13] 93 % of control | [14] 100 % of control

O=C(O)c1c[nH]c2cc(OCc3ccc(Cl)c(Cl)c3)ccc2c1=O
inactive: [15] 95 % of control | [16] 91 % of control | [6] 94 % of control | [17] 92 % of control

O=S(=O)(Nc1ccc2ccc3cccc4ccc1c2c34)c1ccccc1
inactive: [1] 98 % of control | [2] 100 % of control | [3] 100 % of control

COCC(=O)c1ccc(Cl)cc1
inactive: [17] 105 % of control | [4] 110 % of control and 96 % of control | [5] 105 % of control and 107 % of control

CC(O)c1cc2c(cc1I)OCO2 (stereo not drawn)
inactive: dose: 100.0 mg/kg/injection, schedule: Q01DX001 (ip), vehicle: Klucel (hydroxypropylcellulose) (HPC) 106 % of control | dose: 200.0 mg/kg/injection, schedule: Q01DX001 (ip), vehicle: Klucel (hydroxypropylcellulose) (HPC) 108 % of control | dose: 400.0 mg/kg/injection, schedule: Q01DX001 (ip), vehicle: Klucel (hydroxypropylcellulose) (HPC) 107 % of control

CCCCNC(=S)NNc1nc(N(CC)CC)nc(N(CC)CC)n1
inactive: dose: 100.0 mg/kg/injection, schedule: Q04DX002 (ip), vehicle: saline with Tween-80 99 % of control | dose: 200.0 mg/kg/injection, schedule: Q04DX002 (ip), vehicle: saline with Tween-80 99 % of control

CC(=O)Nc1ccc(S(=O)(=O)N/N=C\c2cc([N+](=O)[O-])ccc2O)cc1
inactive: [9] 103 % of control | [10] 101 % of control | [11] 93 % of control

COc1ccc(-c2nn3c(=O)c(Cc4ccccc4)c(O)nc3nc2-c2ccccc2)cc1
inactive: dose: 6.25 mg/kg/injection, schedule: Q01DX005 (ip), vehicle: Klucel (hydroxypropylcellulose) (HPC) 103 % of control | [18] 93 % of control

CC(Br)(C(Br)c1ccccc1)[N+](=O)[O-] (stereo not drawn)
inactive: dose: 25.0 mg/kg/injection, schedule: Q01DX009 (ip), vehicle: Klucel (hydroxypropylcellulose) (HPC) 110 % of control | [1] 108 % of control

[NH-]C(Cc1cnc[n-]1)C(=O)O.[NH-]C(Cc1cnc[n-]1)C(=O)O.[O]=[Mo]1[O][Mo](=[O])[O]1 (stereo not drawn)
inactive: dose: 50.0 mg/kg/injection, schedule: Q01DX009 (ip), vehicle: suspension in saline 99 % of control | dose: 100.0 mg/kg/injection, schedule: Q01DX009 (ip), vehicle: suspension in saline 99 % of control | dose: 200.0 mg/kg/injection, schedule: Q01DX009 (ip), vehicle: suspension in saline 99 % of control

COc1ccc2nc3cc(Cl)ccc3c(NCCCCN3CCCC3)c2n1
inactive: [19] 101 % of control | dose: 25.0 mg/kg/injection, schedule: Q01DX009 (ip), vehicle: water 105 % of control

COc1ccc2nonc2c1
inactive: dose: 100.0 mg/kg/injection, schedule: Q01DX001 (ip), vehicle: saline 103 % of control | dose: 200.0 mg/kg/injection, schedule: Q01DX001 (ip), vehicle: saline 103 % of control | dose: 400.0 mg/kg/injection, schedule: Q01DX001 (ip), vehicle: saline 105 % of control

CCOC(OCC)c1ccc(Cl)cc1
inactive: dose: 100.0 mg/kg/injection, schedule: Q04DX003 (ip), vehicle: saline with Tween-80 100 % of control | dose: 200.0 mg/kg/injection, schedule: Q04DX003 (ip), vehicle: saline with Tween-80 105 % of control | dose: 400.0 mg/kg/injection, schedule: Q04DX003 (ip), vehicle: saline with Tween-80 106 % of control

O=C(NN1C(=O)C=C(O)/C1=C\c1ccccc1)c1ccccc1
inactive: [20] 99 % of control and 104 % of control | [12] 101 % of control and 104 % of control and 111 % of control | [13] 103 % of control and 105 % of control (2×) | [14] 100 % of control and 105 % of control and 121 % of control

CC(C)NC(=O)OCc1c(COC(=O)NC(C)C)c(-c2ccc(F)cc2F)n2c1CCC2
active: dose: 3.13 mg/kg/injection, schedule: Q01DX009 (ip), vehicle: distilled water + Tween-80 168 % of control | dose: 6.25 mg/kg/injection, schedule: Q01DX009 (ip), vehicle: distilled water + Tween-80 158 % of control and 162 % of control | dose: 12.5 mg/kg/injection, schedule: Q01DX009 (ip), vehicle: distilled water + Tween-80 174 % of control and 180 % of control
inactive: dose: 25.0 mg/kg/injection, schedule: Q01DX009 (ip), vehicle: distilled water + Tween-80 99 % of control

C(=C\CN1CCOCC1)/Cc1cccnc1
inactive: dose: 3.12 mg/kg/injection, schedule: Q01DX009 (ip), vehicle: saline with Tween-80 99 % of control and 100 % of control | [21] 100 % of control | [15] 100 % of control and 104 % of control | [16] 100 % of control (2×) and 102 % of control | [6] 103 % of control and 109 % of control

COP(=O)(OC)C(=[N+]=[N-])c1ccccc1
inactive: dose: 6.25 mg/kg/injection, schedule: Q01DX009 (ip), vehicle: water 98 % of control | [19] 106 % of control | dose: 50.0 mg/kg/injection, schedule: Q01DX009 (ip), vehicle: water 93 % of control | dose: 100.0 mg/kg/injection, schedule: Q01DX009 (ip), vehicle: water 98 % of control | dose: 200.0 mg/kg/injection, schedule: Q01DX009 (ip), vehicle: water 90 % of control

Nc1nccc(Cl)n1
inactive: [21] 98 % of control | [15] 100 % of control | [16] 100 % of control | [6] 100 % of control

COC1/C=C/OC2(C)Oc3c(C)c(O)c4c(O)c(c(/C=N/n5cnc6c(ncn6C6OC(CO)C(O)C6O)c5=O)c(O)c4c3C2=O)NC(=O)/C(C)=C\C=C\C(C)C(O)C(C)C(O)C(C)C(OC(C)=O)C1C (stereo not drawn)
inactive: [6] 106 % of control | [7] 97 % of control | [8] 102 % of control

CC1(C)Cc2[nH]c3ccccc3c(=O)c2-c2nc3ccccc3c(=O)n21
inactive: [18] 98 % of control | [20] 88 % of control | [12] 90 % of control | [13] 98 % of control | [14] 116 % of control

C=C(C)C1Oc2ccc(C(C)=O)cc2C1O (stereo not drawn)
inactive: dose: 8.8 mg/kg/injection, schedule: Q01DX009 (ip), vehicle: saline 103 % of control | dose: 17.5 mg/kg/injection, schedule: Q01DX009 (ip), vehicle: saline 89 % of control | dose: 35.0 mg/kg/injection, schedule: Q01DX009 (ip), vehicle: saline 100 % of control

CN(C)Cc1onc(-c2c(Cl)cccc2Cl)c1C(=O)O
inactive: dose: 60.0 mg/kg/injection, schedule: Q01DX005 (ip), vehicle: saline with Tween-80 103 % of control | dose: 120.0 mg/kg/injection, schedule: Q01DX005 (ip), vehicle: saline with Tween-80 95 % of control

COC1/C=C/OC2(C)Oc3c(C)c(O)c4c(c3C2=O)C(=O)C(CO)=C(NC(=O)/C(C)=C\C=C\C(C)C(O)C(C)C(O)C(C)C(OC(C)=O)C1C)C4=O (stereo not drawn)
inactive: [6] 104 % of control | [7] 99 % of control | [8] 112 % of control
